Data: PMC10281726 (Journal of Food and Drug Analysis, 2023)

Legend:
Assay type in all cases: biochemical
[1] = molecular target: dual-specific tyrosine phosphorylation-regulated kinase 1A (DYRK1A) (Homo sapiens, UniProt Q13627); assay: Z'-LYTE FRET-peptide kinase assay, dose response
MKNK1 = MKNK1 (Homo sapiens, UniProt Q9BUB5); assay: kinase panel; conditions: read-out: % inhibition at 3 μM
STK3 = molecular target: T1, STK3 (Homo sapiens, UniProt Q13188); assay: kinase panel; conditions: read-out: % inhibition at 3 μM
T1 sequence (Q13188 1-491): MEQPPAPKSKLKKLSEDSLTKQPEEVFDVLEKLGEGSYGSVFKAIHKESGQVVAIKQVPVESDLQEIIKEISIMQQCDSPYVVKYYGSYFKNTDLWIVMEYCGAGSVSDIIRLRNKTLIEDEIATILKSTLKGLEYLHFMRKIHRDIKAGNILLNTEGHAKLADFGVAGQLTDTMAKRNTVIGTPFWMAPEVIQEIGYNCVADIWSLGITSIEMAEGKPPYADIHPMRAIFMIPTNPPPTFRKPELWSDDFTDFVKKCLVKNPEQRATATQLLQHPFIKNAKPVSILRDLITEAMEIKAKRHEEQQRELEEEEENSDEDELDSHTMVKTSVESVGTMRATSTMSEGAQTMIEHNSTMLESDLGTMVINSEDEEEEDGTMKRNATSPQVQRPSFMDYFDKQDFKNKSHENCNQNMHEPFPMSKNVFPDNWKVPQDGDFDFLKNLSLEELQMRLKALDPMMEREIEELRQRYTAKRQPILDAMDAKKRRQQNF

MINK1 = MINK1 (Homo sapiens, UniProt Q8N4C8); assay: kinase panel; conditions: read-out: % inhibition at 3 μM
Sequence of MINK1 (Q8N4C8 whole entry): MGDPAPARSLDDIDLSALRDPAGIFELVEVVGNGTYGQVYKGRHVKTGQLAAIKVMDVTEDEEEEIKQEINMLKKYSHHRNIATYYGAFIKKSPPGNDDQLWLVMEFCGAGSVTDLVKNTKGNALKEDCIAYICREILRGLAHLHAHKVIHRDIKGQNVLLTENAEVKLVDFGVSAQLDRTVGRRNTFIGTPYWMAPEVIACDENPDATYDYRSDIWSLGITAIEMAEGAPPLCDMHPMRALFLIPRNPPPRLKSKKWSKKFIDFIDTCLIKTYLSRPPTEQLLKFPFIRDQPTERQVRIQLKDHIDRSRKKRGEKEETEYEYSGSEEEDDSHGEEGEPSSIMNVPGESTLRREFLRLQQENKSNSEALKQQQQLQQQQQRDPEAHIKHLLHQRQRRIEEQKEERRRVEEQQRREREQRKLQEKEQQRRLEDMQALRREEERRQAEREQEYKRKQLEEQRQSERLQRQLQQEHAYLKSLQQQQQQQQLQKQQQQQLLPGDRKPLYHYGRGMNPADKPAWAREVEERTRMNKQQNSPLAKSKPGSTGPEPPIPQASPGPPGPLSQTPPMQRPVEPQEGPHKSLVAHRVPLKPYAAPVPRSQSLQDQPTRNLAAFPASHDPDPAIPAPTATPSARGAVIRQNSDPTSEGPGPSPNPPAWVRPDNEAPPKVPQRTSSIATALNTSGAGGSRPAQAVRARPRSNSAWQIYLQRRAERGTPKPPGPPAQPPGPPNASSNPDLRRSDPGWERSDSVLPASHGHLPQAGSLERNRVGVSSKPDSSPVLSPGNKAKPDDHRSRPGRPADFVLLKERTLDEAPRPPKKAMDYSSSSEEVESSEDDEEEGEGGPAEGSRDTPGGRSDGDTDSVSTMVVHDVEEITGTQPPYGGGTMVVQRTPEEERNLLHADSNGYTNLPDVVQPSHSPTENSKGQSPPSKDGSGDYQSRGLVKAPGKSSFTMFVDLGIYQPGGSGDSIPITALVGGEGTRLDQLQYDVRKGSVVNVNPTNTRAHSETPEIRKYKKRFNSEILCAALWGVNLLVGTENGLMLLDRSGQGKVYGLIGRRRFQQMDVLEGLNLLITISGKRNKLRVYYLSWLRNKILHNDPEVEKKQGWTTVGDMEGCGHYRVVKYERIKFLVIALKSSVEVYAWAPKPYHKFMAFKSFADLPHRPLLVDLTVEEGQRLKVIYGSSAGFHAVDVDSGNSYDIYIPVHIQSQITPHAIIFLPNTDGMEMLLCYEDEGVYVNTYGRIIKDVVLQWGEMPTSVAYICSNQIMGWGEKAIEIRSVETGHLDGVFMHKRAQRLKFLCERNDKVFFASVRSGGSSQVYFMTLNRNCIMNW

VRK2 = VRK2 (Homo sapiens, UniProt Q86Y07); assay: kinase panel; conditions: read-out: % inhibition at 3 μM
Sequence of VRK2 (Q86Y07 whole entry): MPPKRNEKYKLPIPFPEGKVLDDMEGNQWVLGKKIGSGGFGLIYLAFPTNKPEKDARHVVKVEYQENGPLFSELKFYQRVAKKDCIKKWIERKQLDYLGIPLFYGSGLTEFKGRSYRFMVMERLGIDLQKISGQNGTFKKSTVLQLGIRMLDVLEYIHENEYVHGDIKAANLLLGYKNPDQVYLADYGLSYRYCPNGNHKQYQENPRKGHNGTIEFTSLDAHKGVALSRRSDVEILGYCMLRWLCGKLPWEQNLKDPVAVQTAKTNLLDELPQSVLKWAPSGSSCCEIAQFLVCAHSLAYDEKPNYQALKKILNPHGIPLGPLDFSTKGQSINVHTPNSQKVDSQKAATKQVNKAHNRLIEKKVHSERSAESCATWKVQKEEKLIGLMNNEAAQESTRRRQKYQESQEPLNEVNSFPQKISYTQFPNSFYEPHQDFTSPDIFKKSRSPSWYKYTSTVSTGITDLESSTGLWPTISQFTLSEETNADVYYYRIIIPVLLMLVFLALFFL

Sequence of MKNK1 (Q9BUB5 whole entry): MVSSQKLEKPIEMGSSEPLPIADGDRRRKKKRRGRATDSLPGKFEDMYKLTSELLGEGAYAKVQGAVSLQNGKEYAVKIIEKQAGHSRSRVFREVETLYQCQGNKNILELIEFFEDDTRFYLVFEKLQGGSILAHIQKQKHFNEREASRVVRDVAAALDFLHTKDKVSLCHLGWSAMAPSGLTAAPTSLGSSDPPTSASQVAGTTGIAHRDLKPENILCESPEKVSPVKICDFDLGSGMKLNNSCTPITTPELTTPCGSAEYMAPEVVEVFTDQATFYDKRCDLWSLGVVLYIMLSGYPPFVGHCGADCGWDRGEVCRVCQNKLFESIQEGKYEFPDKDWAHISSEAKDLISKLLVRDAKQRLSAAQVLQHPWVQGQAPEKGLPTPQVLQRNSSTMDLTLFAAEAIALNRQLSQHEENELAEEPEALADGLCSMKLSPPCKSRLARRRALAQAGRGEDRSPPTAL

IC50 [1]: 0.909 µM
inhibition at 3 µM (MKNK1): > 50%
inhibition at 3 µM (STK3): > 50%
inhibition at 3 µM (MINK1): > 50%
inhibition at 3 µM (VRK2): > 50%
Structure (SMILES): O=c1oc2cc(O)ccc2c2ccc(O)cc12 [UA, Urolithin A]
